Results published in patent US20250034159A1, “INHIBITORS OF EPIDERMAL GROWTH FACTOR RECEPTOR” (ORIC Pharmaceuticals, Inc., priority 2021, published 2025).
pIC50: −log10 of the molar value.

Key:
[1] = target: recombinant human EGFR exon 19 deletion/C797S double mutant protein (Homo sapiens (Human), UniProt P00533, C797S/DEL746-750); assay: Biological Activity Assay C: biochemical assay against EGFR exon 19 deletion/C797S protein (EGFR d19/CS)
Outline: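 IC50 values were fitted with a 4-parameter model to reaction slopes taken from 90 kinetic reads spaced 120 s apart. The Phosphosens sensor/ATP working solution was 40 uM/4 mM, and compound was dosed as 16-point dilutions at 2.5% final DMSO.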

Ba/F3_EGFR WT cells = assay: Biological Activity Assay D: BaF3 cell proliferation assay, EGFR wild-type (BaF3 WT); assay type: cell-based; conditions: Ba/F3 EGFR; Ba/F3_EGFR WT cells, ~72 hours, CellTiter-Glo; read-out: BaF3 WT IC50
BaF3_EGFR d19/CS cells = assay: Biological Activity Assay D: BaF3 cell proliferation assay, EGFR exon 19 deletion/C797S (BaF3 d19/CS); assay type: cell-based; conditions: Ba/F3 EGFR; BaF3_EGFR d19/CS cells, ~72 hours, CellTiter-Glo; read-out: BaF3 d19/CS IC50
BaF3_EGFR LR/CS cells = assay: Biological Activity Assay D: BaF3 cell proliferation assay, EGFR L858R/C797S mutant (BaF3 LR/CS); assay type: cell-based; conditions: Ba/F3 EGFR; BaF3_EGFR LR/CS cells, ~72 hours, CellTiter-Glo; read-out: BaF3 LR/CS IC50

recombinant human EGFR exon 19 deletion/C797S double mutant protein, sequence (P00533 other isoform, or with tags, fused parts or gaps C797S/del 1-668/del 746-750 limits assumed): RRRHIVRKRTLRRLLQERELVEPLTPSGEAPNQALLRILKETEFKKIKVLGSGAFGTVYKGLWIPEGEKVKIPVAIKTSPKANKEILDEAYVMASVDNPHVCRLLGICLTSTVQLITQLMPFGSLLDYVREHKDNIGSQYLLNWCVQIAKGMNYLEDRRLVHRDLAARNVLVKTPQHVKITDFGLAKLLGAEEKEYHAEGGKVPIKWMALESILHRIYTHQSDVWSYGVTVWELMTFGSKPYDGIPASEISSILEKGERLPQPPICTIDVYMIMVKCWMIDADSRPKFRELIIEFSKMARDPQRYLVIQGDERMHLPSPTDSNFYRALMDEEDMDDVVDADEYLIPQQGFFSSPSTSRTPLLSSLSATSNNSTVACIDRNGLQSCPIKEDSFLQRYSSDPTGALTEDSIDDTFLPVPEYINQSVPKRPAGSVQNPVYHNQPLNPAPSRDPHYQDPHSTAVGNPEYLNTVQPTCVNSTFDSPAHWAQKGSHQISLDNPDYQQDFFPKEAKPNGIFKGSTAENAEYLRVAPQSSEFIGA

Structure (SMILES) | pIC50 [1] | pIC50 (Ba/F3_EGFR WT cells) | pIC50 (BaF3_EGFR d19/CS cells) | pIC50 (BaF3_EGFR LR/CS cells)
CC(C)(C)OC(=O)N1CCC=C(c2cc3c(-c4cn(C5CS(=O)(=O)C5)nc4-c4ccc(F)cc4)ncnc3o2)C1 [Example 146, tert-butyl 5-{4-[1-(1,1-dioxo-1λ6-thietan-3-yl)-3-(4-fluorophenyl)-1H-pyrazol-4-yl]furo[2,3-d]pyrimidin-6-yl}-3,6-dihydropyridine-1(2H)-carboxylate] | 8.38 | 5.10 | 6.28 | 6.03
NC(=O)CCCn1cc(-c2ncnc3oc(-c4ccccc4)cc23)c(-c2ccc(F)cc2)n1 [Example 147, 4-[3-(4-Fluorophenyl)-4-(6-phenylfuro[2,3-d]pyrimidin-4-yl)-1H-pyrazol-1-yl]butanamide] | 9.59 | 5.86 | 7.16 | 7.14
CN1CCC(n2cc(-c3ncnc4oc(-c5ccccc5)cc34)c(-c3ccc(F)cc3)n2)C1=O (stereo not drawn) [Example 148, 3-[3-(4-Fluorophenyl)-4-(6-phenylfuro[2,3-d]pyrimidin-4-yl)-1H-pyrazol-1-yl]-1-methylpyrrolidin-2-one] | 9.21 | 5.82 | 7.03 | 7.16
CC(=O)N1CCN(c2cc3c(-c4cn(C5CS(=O)(=O)C5)nc4-c4ccc(F)cc4)ncnc3o2)CC1 [Example 149, 3-{4-[6-(4-acetylpiperazin-1-yl)furo[2,3-d]pyrimidin-4-yl]-3-(4-fluorophenyl)-1H-pyrazol-1-yl}-1λ6-thietane-1,1-dione] | 8.43 | < 4.70 | 5.94 | 5.56
Fc1ccc(-c2nn([C@H]3C[C@@H](F)C3)cc2-c2ncnc3oc(-c4ccccc4)cc23)cc1 [Example 150, 4-{1-[(1s,3s)-3-fluorocyclobutyl]-3-(4-fluorophenyl)-1H-pyrazol-4-yl}-6-phenylfuro[2,3-d]pyrimidine] | 8.85 | 5.48 | 7.16 | 7.37
O=S1(=O)CC(n2cc(-c3ncnc4oc(C5=CNCCC5)cc34)c(-c3ccc(F)cc3)n2)C1 [Example 154, 3-{3-(4-fluorophenyl)-4-[6-(1,4,5,6-tetrahydropyridin-3-yl)furo[2,3-d]pyrimidin-4-yl]-1H-pyrazol-1-yl}-1λ6-thietane-1,1-dione] | 9.12 | 4.79 | 6.36 | 6.20
CC(=O)N1C=C(c2cc3c(-c4cn(C5CS(=O)(=O)C5)nc4-c4ccc(F)cc4)ncnc3o2)CCC1 [Example 155, 3-{4-[6-(1-acetyl-1,4,5,6-tetrahydropyridin-3-yl)furo[2,3-d]pyrimidin-4-yl]-3-(4-fluorophenyl)-1H-pyrazol-1-yl}-1λ6-thietane-1,1-dione] | 9.39 | 5.93 | 7.20 | 7.19
FCCCn1cc(-c2ncnc3oc(-c4ccccc4)cc23)c(-c2ccc(F)cc2)n1 [Example 156, 4-[3-(4-fluorophenyl)-1-(3-fluoropropyl)-1H-pyrazol-4-yl]-6-phenylfuro[2,3-d]pyrimidine] | 9.51 | 5.83 | 7.52 | 7.73
CC(C)(Cn1cc(-c2ncnc3oc(-c4ccccc4)cc23)c(-c2ccc(F)cc2)n1)C(N)=O [Example 158, 3-[3-(4-fluorophenyl)-4-(6-phenylfuro[2,3-d]pyrimidin-4-yl)-1H-pyrazol-1-yl]-2,2-dimethylpropanamide] | 9.59 | 6.11 | 7.48 | 7.82
O=S1(=O)CC(n2cc(-c3ncnc4oc(C5=CCCNC5)cc34)c(-c3ccc(F)cc3)n2)C1 [Example 159, 3-{3-(4-fluorophenyl)-4-[6-(1,2,5,6-tetrahydropyridin-3-yl)furo[2,3-d]pyrimidin-4-yl]-1H-pyrazol-1-yl}-1λ6-thietane-1,1-dione] | 8.42 | 5.22 | 6.57 | 6.29
O=C1CCCCN1c1cc2c(-c3cn(C4CS(=O)(=O)C4)nc3-c3ccc(F)cc3)ncnc2o1 [Example 160, 3-{3-(4-fluorophenyl)-4-[6-(2-oxopiperidin-1-yl)furo[2,3-d]pyrimidin-4-yl]-1H-pyrazol-1-yl}-1λ6-thietane-1,1-dione] | 8.30 | 4.85 | 6.44 | 6.12
N=S1(=O)CCC(n2cc(-c3ncnc4oc(-c5ccccc5)cc34)c(-c3ccc(F)cc3)n2)C1 (stereo not drawn) [Example 161, 3-[3-(4-fluorophenyl)-4-(6-phenylfuro[2,3-d]pyrimidin-4-yl)-1H-pyrazol-1-yl]-1-imino-1λ6-thiolan-1-one] | 9.85 | 6.25 | 7.88 | 8.31
C[C@]1(O)C[C@@H](Cn2cc(-c3ncnc4oc(-c5ccccc5)cc34)c(-c3ccc(F)cc3)n2)C1 [Example 162, (1s,3s)-3-{[3-(4-fluorophenyl)-4-(6-phenylfuro[2,3-d]pyrimidin-4-yl)-1H-pyrazol-1-yl]methyl}-1-methylcyclobutan-1-ol] | 9.36 | 5.87 | 7.19 | 7.98
CS(=O)(=O)[C@H]1C[C@@H](n2cc(-c3ncnc4oc(-c5ccccc5)cc34)c(-c3ccc(F)cc3)n2)C1 [Example 163, 4-{3-(4-fluorophenyl)-1-[(1s,3s)-3-(methanesulfonyl)cyclobutyl]-1H-pyrazol-4-yl}-6-phenylfuro[2,3-d]pyrimidine] | 9.57 | 6.21 | 7.66 | 7.99
O=S1(=O)CC(n2cc(-c3ncnc4oc(-c5cccnc5)cc34)c(-c3ccc(F)cc3)n2)C1 [Example 164, 3-{3-(4-fluorophenyl)-4-[6-(pyridin-3-yl)furo[2,3-d]pyrimidin-4-yl]-1H-pyrazol-1-yl}-1λ6-thietane-1,1-dione] | 9.54 | 6.05 | 7.44 | 7.58
O=S1(=O)CC(n2cc(-c3ncnc4oc(-c5ccncc5)cc34)c(-c3ccc(F)cc3)n2)C1 [Example 165, 3-{3-(4-fluorophenyl)-4-[6-(pyridin-4-yl)furo[2,3-d]pyrimidin-4-yl]-1H-pyrazol-1-yl}-1λ6-thietane-1,1-dione] | 9.59 | 5.96 | 7.43 | 7.69
O=S1(=O)CC(n2cc(-c3ncnc4oc(N5CC6(CCOC6)C5)cc34)c(-c3ccc(F)cc3)n2)C1 [Example 168, 3-{3-(4-fluorophenyl)-4-[6-(6-oxa-2-azaspiro[3.4]octan-2-yl)furo[2,3-d]pyrimidin-4-yl]-1H-pyrazol-1-yl}-1λ6-thietane-1,1-dione] | 7.81 | < 4.70 | 5.94 | 5.45
O=S1(=O)CC(n2cc(-c3ncnc4oc(-c5cccc(C(F)(F)F)c5)cc34)c(-c3ccc(F)cc3)n2)C1 [Example 169, 3-[3-(4-fluorophenyl)-4-{6-[3-(trifluoromethyl)phenyl]furo[2,3-d]pyrimidin-4-yl}-1H-pyrazol-1-yl]-1λ6-thietane-1,1-dione] | 8.51 | 4.95 | 6.34 | 6.40
Fc1ccc(-c2nn(C3CC(F)(F)C3)cc2-c2ncnc3oc(-c4ccccc4)cc23)cc1 [Example 170, 4-[1-(3,3-difluorocyclobutyl)-3-(4-fluorophenyl)-1H-pyrazol-4-yl]-6-phenylfuro[2,3-d]pyrimidine] | 8.86 | 5.32 | 6.67 | 7.01
O=S1(=O)CCC(n2cc(-c3ncnc4[nH]c(-c5ccccc5)nc34)c(-c3ccc(F)cc3)n2)C1 (stereo not drawn) [Example 171, 3-[3-(4-fluorophenyl)-4-(8-phenyl-9H-purin-6-yl)-1H-pyrazol-1-yl]-1λ6-thiolane-1,1-dione] | 10.22 | 5.74 | 7.58 | 8.11
Fc1ccc(-c2nn([C@H]3C[C@H]4CC[C@@H](C3)O4)cc2-c2ncnc3oc(-c4ccccc4)cc23)cc1 [Example 172, 4-{3-(4-fluorophenyl)-1-[(1R,3r,5S)-8-oxabicyclo[3.2.1]octan-3-yl]-1H-pyrazol-4-yl}-6-phenylfuro[2,3-d]pyrimidine] | 8.84 | 5.15 | 6.70 | 7.48
O=S1(=O)CC(n2cc(-c3ncnc4oc(-c5ccccn5)cc34)c(-c3ccc(F)cc3)n2)C1 [Example 173, 3-{3-(4-fluorophenyl)-4-[6-(pyridin-2-yl)furo[2,3-d]pyrimidin-4-yl]-1H-pyrazol-1-yl}-1λ6-thietane-1,1-dione] | 9.96 | 6.10 | 7.54 | 7.75
O=S1(=O)CC(n2cc(-c3ncnc4oc(-c5ccnnc5)cc34)c(-c3ccc(F)cc3)n2)C1 [Example 174, 3-{3-(4-fluorophenyl)-4-[6-(pyridazin-4-yl)furo[2,3-d]pyrimidin-4-yl]-1H-pyrazol-1-yl}-1λ6-thietane-1,1-dione] | 8.43 | 5.04 | 6.31 | 6.11
O=S1(=O)CC(n2cc(-c3ncnc4oc(-c5cncnc5)cc34)c(-c3ccc(F)cc3)n2)C1 [Example 175, 3-{3-(4-fluorophenyl)-4-[6-(pyrimidin-5-yl)furo[2,3-d]pyrimidin-4-yl]-1H-pyrazol-1-yl}-1λ6-thietane-1,1-dione] | 8.22 | 4.93 | 6.61 | 6.33
